# Experimental data: patent US9668959B2, “A3 adenosine receptor ligands for modulation of pigmentation” (ORADIN PHARMACEUTICAL LTD., priority 2009, dated 2017)
# Tests used:
# B16 melanocytes [1] = assay: Melanin assay (melanin in cell lysates and media) in B16 melanocytes; format: cell-based, murine; conditions: for melanin secretion to the media, visual (photograph): FIG. 3E; for detectable levels of melanin secreted to the medium (extracellular): after 24 hours of exposure; for increase of the total melanin level: FIG. 1B
# Procedure: B16 F1 melanoma cells were grown adherently and maintained in DMEM (without phenol red), containing 10% fetal calf serum, 1% antibiotics (penicillin, streptomycin and nystatin, each at 100 U/ml), and 2 mM L-glutamine. Cells were cultured at 37° C. in 5% CO2, and passaged two to three times weekly at a ratio of 1:10.
# Melanin content was determined as reported by Sato et al., (2008), Biol. Pharm. Bull., 31(1):33-7, with modifications. Cells (6.5×10^4) were seeded into 6 well plates with 5 ml of DMEM medium (described above) and incubated at 37° C. with 5% CO2 for 3-4 hours to enable cell adherence. Cells were then exposed to test chemicals (IB-MECA, MRS-1523 or kojic acid) at the desired concentration and incubation periods. After the treatment, the supernatants were collected to determine the amount of melanin secreted to the medium. Cells were washed with PBS, detached by incubation with trypsin/EDTA and then DMEM with serum (0.75 ml) was added to each well. Cells were collected by centrifugation and lysed by exposure to 2N NaOH (1 ml) at 60° C. for 1 h and the melanin content was determined by measuring the absorption at 400 nm. The amount of protein in each lysate was determined using bovine serum albumin is used as the standard. The amount of melanin in each sample was calculated using synthetic melanin as standard. The results were expressed as the melanin content per mg protein (μg/mg protein). To compare among treatments, the results were expressed as percent relative to control.
# B16 melanocytes [2] = assay: Microscopy of melanosome level and distribution in treated B16 melanocytes; format: cell-based, murine; conditions: 10 μM, 24 h, FIG. 3A
# Akt = Akt phosphorylation in serum starved B16 melanocytes (western blot); format: cell-based, murine; conditions: 10 μM, up to 3 h
# Procedure: (§1) B16 melanocytes grown in 6-well plates were serum starved overnight and then incubated in the presence of IB-MECA or MRS-1523 (10 μM), for different time intervals at 37° C. Cells were then rinsed with ice cold PBS and lysed by addition of RIPA buffer containing: proteinase inhibitor (PIC, 1:50 v/v), 0.1 mM phenylmethylsulphonylfluoride (PMSF) and 1 mM sodium orthovandate. Cells debris was removed by centrifugation. The protein level in the supernatants was determined using BSA as standard. Equal amounts of the sample (20 μg) were separated by SDS-PAGE using 10% polyacrylamide gels. The resolved proteins were then electroblotted onto nitrocellulose membrane. Membranes were blocked with 1% bovine serum albumin and incubated with anti-ERK-2 antibody (1:1000) or anti-phospho-ERK antibody (1:10000) for 1 h at room temperature, or with anti-Akt-1 antibody (1:1000) or with anti-phospho-Akt antibody […] at 4° C. for 24 h. Blots were then washed and incubated with horseradish peroxidase (conjugated secondary antibodies), for 1 hour at room temperature. The proteins were detected using ECL kit. For the detection of ERK phosphorylation after 72 hours of exposure to the ligands, non-starved cells were used (with 10% FCS).
# ERK1/2 = ERK1/2 phosphorylation in B16 melanocytes (western blot); format: cell-based, murine; conditions: for ERK phosphorylation: 72 hours of exposure, non-starved cultures (10% FCS), FIG. 6B
# Procedure: as §1
# ERK phosphorylation in non-starved cultures (containing 10% FCS) after 72 hours of exposure to the ligands was examined.
# Mitf = Mitf expression and localization in B16 melanocytes (immunostaining, confocal microscopy); format: cell-based, murine; conditions: 10 μM; for Mitf expression: 3 h or 24 h, FIG. 7
# Procedure: B16 melanocytes were grown for 24 h on glass cover-slips coated with poly-L-lysine (500 ug/ml) in 6 wells plates in the presence of IB-MECA or MRS-1523 (10 μM), for 3 h or 24 h at 37° C. Cells were fixed in 4% formaldehyde in phosphate buffered saline (PBS) for 1 h at room temperature. […] To block non-specific interaction of the antibodies, cells were incubated with PBS (1% BSA, 0.1% Triton X-100). […] Cells were washed three times with PBS and mounted with Fluoromount (Sigma). Cells were visualized by confocal microscopy (excitation 553 and emission at 568, Lieca).
# human skin explants = assay: Ex vivo human skin organ culture, pigmentation by DOPA staining and light transmission; format: cell-based; conditions: for number of dark-stained DOPA positive melanocytes (D-P-M) compared to control: IB-MECA or MRS-1523 10 or 50 μM, hydroquinone 100 μM, FIGS. 8B and 8D; for melanin levels in skin explants: 10 or 50 μM, 12 days of exposure
# Procedure: Samples of human breast skin obtained during breast surgery were cut into pieces (0.5×0.5 cm) and cultured in DMEM medium (described above) in 6 well plates and incubated at 37° C. with 5% CO2 for 12 days. […] Treated skin samples were washed with PBS and the epidermal sheets were separated from the dermis and incubated in 0.1% L-3,4-DOPA in PBS for 4 h at 37° C. The epidermis sheets were then fixed with 4% formaldehyde solution, dehydrated by graded alcohol, cleared in xylene, and mounted on glass slides. DOPA positive melanocytes were visualized by light microscopy (×400 magnification). […] Light transmission of each area in the epidermis sheet was calculated and expressed as a mean of density of three images.
# human breast skin = assay: Ex vivo human skin organ culture, pigmentation by Fontana-Masson stain; format: cell-based; conditions: for melanin accumulation and/or deposition in keratinocytes (histological appearance): FIG. 9
# Procedure: Formalin fixed paraffin embedded skin sections from samples of human breast skin treated with IB-MECA, MRS-1523 or hydroquinone as described for FIG. 8, were evaluated for Fontana-Masson staining and visualized by light microscopy (×400). IBMX (100 μM) was used as a positive control for induction of melanogenesis. K, keratinocytes; M, melanocytes.
# Samples of human breast skin obtained during breast surgery were cut into pieces (0.5×0.5 cm) and cultured in DMEM medium (described above) in 6 well plates and incubated at 37° C. with 5% CO2 for 12 days. Skin samples were topically treated with 10 or 50 μM of various A3 adenosine receptor ligands or 100 μM hydroquinone three times during the incubation period and the medium was exchanged every 3 days.
# A3 adenosine receptor = conditions: cited from earlier work
# [3] = 10 μM, serum starved cells, FIG. 6A
# [4] = highest IB-MECA concentration, 5 days, FIG. 1A
compound,measurement,setting,value
"CCCOC(=O)c1c(-c2ccccc2)nc(CC)c(C(=O)SCC)c1CCC [MRS-1523, 3-propyl-6-ethyl-5[(ethylthio)carbonyl]-2-phenyl-4-propyl-3-pyridine carboxylate]",melanin level in the cells decreased by,"B16 melanocytes [1]; 1 μM, 5 days",27±5.7%
same,total melanin decreased by,"B16 melanocytes [1]; 1 μM, 5 days",37±5.7%
same,melanin level in the cells decreased by,"B16 melanocytes [1]; 5 μM, 5 days",24±1.7%
same,total melanin decreased by,"B16 melanocytes [1]; 5 μM, 5 days",24±1.9%
same,decrease in the overall melanin level,"B16 melanocytes [1]; 10 μM, 5 days",88±1.3%
same,"melanin secretion to the media, visual (photograph)","B16 melanocytes [1]; 10 μM, 5 days",visually observable decrease in melanin
same,detectable levels of melanin secreted to the medium (extracellular),B16 melanocytes [1]; 10 μM,not observed
same,total melanin level decreased by,"B16 melanocytes [1]; 10 μM, four days (96 h)",67±4.4%
same,melanin level within the cells decreased by,"B16 melanocytes [1]; 40 μM, 5 days, FIG. 2A",11±2.3%
same,melanin secretion blocked by,"B16 melanocytes [1]; 40 μM, 5 days, FIG. 2A",88±1.7%
same,decrease in total melanin,"B16 melanocytes [1]; 40 μM, 5 days, FIG. 2B",67±1.07%
same,decrease of the intracellular melanin,"B16 melanocytes [1]; ""this treatment"" (concentration unclear), 5 days",48%±4.9
same,secreted and total melanin levels compared to control,"B16 melanocytes [1]; all concentrations within 1-40 μM, 5 days",lower than that of the control
same,melanosome level and distribution in the cytosol,B16 melanocytes [2],more melansomes were observed in the cell periphery and in the dendritic sites of the control and IB-MECA treated melanocytes as compared to MRS-1523 treated cells
same,Akt phosphorylation on continued exposure,Akt,downregulation of P-Akt
same,time to induced phosphorylation of ERK 1,ERK1/2; [3],≤ 30 min
same,time to induced phosphorylation of ERK 2,ERK1/2; [3],≤ 10 min
same,ERK phosphorylation,ERK1/2,stimulated phosphorylation of both ERK1 and ERK 2
same,Mitf expression,Mitf,very low Mitf expression
same,pigmentation decreased by (light transmission through epidermal sheets after DOPA staining),"human skin explants; 10 μM, 12 days",80+21.8%
same,pigmentation decreased by (light transmission through epidermal sheets after DOPA staining),"human skin explants; 50 μM, 12 days",49.5 ± 6.9%
same,number of dark-stained DOPA positive melanocytes (D-P-M) compared to control,human skin explants; 12 days,decreased number
same,melanin levels in skin explants,human skin explants; topical,decreased melanin levels
same,melanin accumulation and/or deposition in keratinocytes (histological appearance),human breast skin,lesser extent of melanin accumulation and/or deposition in the keratinocytes
same,pigmentation of Fontana-Masson stained skin sections compared to control,human breast skin; concentration not given,decreased pigmentation
"CNC(=O)[C@H]1O[C@@H](n2cnc3c(NCc4cccc(I)c4)ncnc32)[C@H](O)[C@@H]1O [IB-MECA, N^6-(3-iodobenzyl) adenosine-5′-(N-methyluronamide)]",increase of the total melanin level,"B16 melanocytes [1]; 5 μM, 5 days",220±19.4%
same,level of total melanin,"B16 melanocytes [1]; 10 μM, 72 hours of exposure",non-significantly increased
same,increase in the total melanin level,"B16 melanocytes [1]; 10 μM, 120 h",537±31.9%
same,increase of the total melanin level,"B16 melanocytes [1]; 10 μM, 5 days",369±1%
same,"melanin secretion to the media, visual (photograph)","B16 melanocytes [1]; 10 μM, 5 days",visually observable increase in melanin
same,detectable levels of melanin secreted to the medium (extracellular),B16 melanocytes [1]; 10 μM,not observed
same,total melanin level increased by,"B16 melanocytes [1]; 10 μM, four days (96 h)",198±12.1%
same,increase of the total melanin level,"B16 melanocytes [1]; 40 μM, 5 days",441±53.8%
same,intracellular melanin level increased by,B16 melanocytes [1]; [4],143±4.1%
same,secretion of melanin to the media increased by,B16 melanocytes [1]; [4],554±23.8%
same,melanosome level and distribution in the cytosol,B16 melanocytes [2],melanosomes were accumulated in the perinuclear areas
same,Akt phosphorylation on continued exposure,Akt,increased phosphorylation of Akt
same,level of ERK phosphorylation,"ERK1/2; 10 μM, 10 min to 3 h, serum starved cells, FIG. 6A",did not increase the level of ERK phosphorylation
same,ERK phosphorylation,ERK1/2,did not appear to affect ERK phosphorylation
same,time to translocation of Mitf protein to the nucleus,Mitf,≤ 3 h
same,Mitf expression,Mitf,highly expressed
same,Mitf expression in cytoplasm and nucleus,Mitf; after 24 h of exposure,remained high
same,pigmentation increased by (light transmission through epidermal sheets after DOPA staining),"human skin explants; 10 μM, 12 days",27+3.9%
same,pigmentation increased by (light transmission through epidermal sheets after DOPA staining),"human skin explants; 50 μM, 12 days",36+2.6%
same,number of dark-stained DOPA positive melanocytes (D-P-M) compared to control,human skin explants; 12 days,increased number
same,melanin levels in skin explants,human skin explants; topical,increased melanin levels
same,pigmentation of Fontana-Masson stained skin sections compared to control,human breast skin; 10 μM,increased pigmentation
same,melanin accumulation and/or deposition in keratinocytes (histological appearance),human breast skin,elevation in melanin accumulation and/or deposition in the adjacent keratinocytes
same,selectivity for the A3 adenosine receptor versus either the A1 or A2A receptors,A3 adenosine receptor,50 fold
"CC(C)Cn1c(=O)n(C)c(=O)c2[nH]cnc21 [IBMX, 3-isobutyl-1-methyl-xanthine]",pigmentation of Fontana-Masson stained skin sections compared to control,"human breast skin; 100 μM, positive control",increased pigmentation
O=c1cc(CO)occ1O [kojic acid],effect on melanin synthesis and secretion,"B16 melanocytes [1]; 5 days, FIG. 4A",both melanin synthesis (overall melanin levels) and secretion (melanin level in the medium) were affected
same,inhibition in the total melanin level,"B16 melanocytes [1]; 5 days, concentration not given, FIG. 4B",51%±2.4
Oc1ccc(O)cc1 [hydroquinone],number of dark-stained DOPA positive melanocytes (D-P-M) compared to control,human skin explants; 12 days,increased number
same,skin pigmentation,"human skin explants; topical, 100 μM, 12 days",increased skin pigmentation
